Reference: US9067898B1, “Isothiazole derivatives as GPR120 agonists for the treatment of type II diabetes” (Janssen Pharmaceutica NV, priority 2014, dated 2015)

Assays:
[1] = target: T1, long form of human GPR120 (Homo sapiens, UniProt Q5NUL3); experiment: Human GPR120 DiscoveRx PathHunter Beta-Arrestin assay, Procedure β-arrestin A; type: cell-based; conditions: PathHunter CHO-K1 GPR120 β-Arrestin cell line, 3000 cells per well, read-out: hGPR120 β-arrestin A EC50
T1 construct: host or cells: PathHunter CHO-K1 GPR120 β-Arrestin Cell Line
Description: The binding of an agonist (medium/long chain fatty acids or small molecule agonists) to the G-protein-coupled receptor GPR120 activates phospholipase C, leading to release of intracellular Ca^+2 through the generation of inositol 1,4,5-trisphosphate (InsP3 or IP3). GPR120 activation can also trigger intracellular signaling via recruitment of Beta-Arrestin. In the present method, agonist-induced activation of the human GPR120 receptor is monitored through the use of PathHunter CHO-K1 GPR120 Beta-Arrestin Cell Line engineered by DiscoveRx, as detailed below. The cell lines are designed to co-express both the ProLink/Enzyme Donor (PK)-tagged GPCR and the Enzyme […] (EA)-tagged Beta-Arrestin fusion proteins. Upon GPR120 receptor stimulation/activation, the EA-tagged Beta-Arrestin portion is translocated to the tagged receptor, where the two enzyme fragments are brought within close proximity. Under these conditions, these fragments can interact and form an active Beta-gal enzyme complex through Enzyme Fragment Complementation (EFC). This active Beta-gal complex can enzymatically hydrolyse the substrate to produce a detectable light signal; therefore, activation as a function of agonist concentration can be expressed as an EC50 value to determine relative compound activities. This in vitro assay therefore serves to assess compound agonist activity of the GPR120. Procedure β-Arrestin A: In Procedure β-arrestin A, the cell used were PathHunter CHO-K1 GPR120 β-Arrestin Cell Line, expressing the long form of human GPR120 (Genbank accession number NM 181745), with 3000 cells per well. Procedure β-Arrestin B: In Procedure 3-arrestin B the cells used were PathHunter CHO-K1 GPR120S β-Arrestin Cell Line, expressing the short form of the GPR120 receptor (Accession #NM_181745), with 5000 cells/well. Assay Procedure:
The selected CHO-K1 GPR120 β-Arrestin cells were cultured in Ham's F12 media supplemented with 10% fetal bovine serum (FBS), 1% Glutamine, lx p/s, 800 μg/mL G418 and 300 μg/mL Hygromycin B (for selection). Cell stocks were maintained and grown in a sub-confluent state using standard cell culture procedures. The day before the experiment, the cells were harvested with non-enzymatic cell dissociation buffer and re-suspended in complete growth media at the desired concentration. A Corning 384-plate was then seeded with the proper number of cells in a volume of 25 μL, per well. The seeded plates were incubated overnight at 37° C.
On the day of the experiment, the Assay Buffer containing (a) HBSS with Ca^++ and Mg^++, (b) 20 mM HEPES, and (c) 0.1% BSA stabilizer (pH 7.4) was prepared. The growth medium was gently removed from the cell plates and 20 μL of Assay Buffer added to each well. The plate was then incubated at 37° C. for 60 min. Test compounds were serially diluted in Assay Buffer to desired concentrations (more particularly to one or more of the following μM concentrations: 25, 12.5, 6.25, 3.125, 1.5625, 0.78125, 0.390625, 0.1953125, 0.09765625, 0.048828125, 0.024414063, 0.012207031). Five μL of compound dilution was then added to each well and the plate incubated at 37° C. for 90 min. The detection reagents were prepared according to the manufacture's instruction. Twelve μL of the detection reagents were added to each well and the plate incubated at room temperature for 60 min.
The plates were read on an EnVision instrument, using Protocol name: Luminescence, Plate type: 384 Costar, Measurement height: 3 mm, Measurement time: 1 s, Aperture: 384 Plate aperture. The % activity relative to the positive control was calculated using the following equation:
The % Activity values were plotted versus the concentration of test compound and fitted to a sigmoidal dose-response curve with a Hill slope=1 (fixed value) using nonlinear regression with GraphPad Prism 5.0 to calculate the EC50 values. […]

Human GPR120 short form = target: T2, Human GPR120 short form (Homo sapiens, UniProt Q5NUL3); experiment: Human GPR120 calcium flux assay (FLIPR), Procedure Calcium A; type: cell-based; conditions: HEK-293 cells expressing human GPR120 short form, 2500 cells/well; read-out: GPR120 Ca2+ Assay A EC50
T2 construct: expressed in transfected cells
T2 sequence (Q5NUL3 1-361): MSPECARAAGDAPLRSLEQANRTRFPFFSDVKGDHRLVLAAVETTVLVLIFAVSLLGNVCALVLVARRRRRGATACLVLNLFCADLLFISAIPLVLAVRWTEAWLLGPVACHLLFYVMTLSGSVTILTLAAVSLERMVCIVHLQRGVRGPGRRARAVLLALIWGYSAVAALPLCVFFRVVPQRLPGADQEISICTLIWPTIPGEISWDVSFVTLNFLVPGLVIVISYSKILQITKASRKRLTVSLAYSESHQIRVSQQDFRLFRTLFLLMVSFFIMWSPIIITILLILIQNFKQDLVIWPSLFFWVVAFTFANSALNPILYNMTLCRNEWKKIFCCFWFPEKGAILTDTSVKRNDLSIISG
Summary of the method: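 HEK293 cells stably expressing the short isoform (NM_001195755.1), 2500/well, starved 1 h, then loaded with Fluo-4 NW plus probenecid (30 min 37 °C, 15 min RT). Compound solutions 0.012–100 μM, 0.2% DMSO final; FLIPR read 300 s after addition. EC50 from Fmax−Fmin fitted to variable-slope sigmoid (Hill <2).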

T1 sequence (Q5NUL3 1-377 isoform Q5NUL3-1): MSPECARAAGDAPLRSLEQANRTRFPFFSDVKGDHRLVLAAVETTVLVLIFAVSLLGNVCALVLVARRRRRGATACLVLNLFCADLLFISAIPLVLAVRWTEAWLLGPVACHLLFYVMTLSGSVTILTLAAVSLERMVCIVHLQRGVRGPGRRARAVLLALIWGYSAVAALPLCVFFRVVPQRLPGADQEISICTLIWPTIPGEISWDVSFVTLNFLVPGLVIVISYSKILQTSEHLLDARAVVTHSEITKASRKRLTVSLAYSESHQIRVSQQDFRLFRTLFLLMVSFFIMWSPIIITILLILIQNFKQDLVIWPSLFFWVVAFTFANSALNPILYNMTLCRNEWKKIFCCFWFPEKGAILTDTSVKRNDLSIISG
T1 sequence (P32121 whole entry partner): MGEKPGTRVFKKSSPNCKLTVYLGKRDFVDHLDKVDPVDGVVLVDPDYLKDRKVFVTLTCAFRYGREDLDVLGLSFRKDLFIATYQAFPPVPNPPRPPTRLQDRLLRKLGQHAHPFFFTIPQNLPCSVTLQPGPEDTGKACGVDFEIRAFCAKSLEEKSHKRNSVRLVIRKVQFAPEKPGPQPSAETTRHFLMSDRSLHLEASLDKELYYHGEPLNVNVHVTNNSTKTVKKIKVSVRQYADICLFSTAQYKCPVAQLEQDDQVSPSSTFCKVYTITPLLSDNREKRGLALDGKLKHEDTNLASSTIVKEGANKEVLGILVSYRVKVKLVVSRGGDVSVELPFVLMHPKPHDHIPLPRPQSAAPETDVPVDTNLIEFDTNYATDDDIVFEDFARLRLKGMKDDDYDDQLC

Compound	EC50 [1]	EC50 (Human GPR120 short form)
Cc1ccc(-c2snc(Cl)c2COc2c(F)cc(CCC(=O)O)cc2F)c(F)c1 [Cpd 77, 3-(4-[[3-chloro-5-(2-fluoro-4-methylphenyl)-1,2-thiazol-4-yl]methoxy]-3,5-difluorophenyl)propanoic acid]	191 nM	
O=C(O)CCc1cc(F)c(OCc2c(-c3ccc(Cl)cc3)csc2C(F)(F)F)c(F)c1F [Cpd 50, 3-(4-((4-(4-chlorophenyl)-2-(trifluoromethyl)thiophen-3-yl)methoxy)-2,3,5-trifluorophenyl)propanoic acid]	100 nM	171 nM
Cc1c(CCC(=O)O)ccc(OCc2c(-c3ccc(F)cc3)csc2C(F)(F)F)c1C [Cpd 58, 3-(4-((4-(4-fluorophenyl)-2-(trifluoromethyl)thiophen-3-yl)methoxy)-2,3-dimethylphenyl)propanoic acid]	639 nM	293 nM
CCc1ccc(-c2cc(F)sc2COc2ccc(CCC(=O)O)c(F)c2F)cc1 [Cpd 12, 3-(4-[[3-(4-ethylphenyl)-5-fluorothiophen-2-yl]methoxy]-2,3-difluorophenyl)propanoic acid]	125 nM	135 nM
CC(CO)Cc1cc(F)c(OCc2c(-c3ccc(Cl)cc3)nsc2C(F)(F)F)c(F)c1 (stereo not shown) [Cpd 230, 3-(4-[[3-(4-chlorophenyl)-5-(trifluoromethyl)-1,2-thiazol-4-yl]methoxy]-3,5-difluorophenyl)-2-methylpropan-1-ol]	474 nM	1020 nM
COc1ccc(-c2csc(C(F)(F)F)c2COc2c(F)cc(CCC(=O)O)cc2F)cc1 [Cpd 34, 3-(3,5-difluoro-4-((4-(4-methoxyphenyl)-2-(trifluoromethyl)thiophen-3-yl)methoxy)phenyl)propanoic acid]	208 nM	65 nM
Cc1ccc(-c2nsc(C(F)(F)F)c2COc2c(F)cc(CCC(=O)O)cc2F)cc1 [Cpd 115, 3-(3,5-difluoro-4-[[3-(4-methylphenyl)-5-(trifluoromethyl)-1,2-thiazol-4-yl]methoxy]phenyl) propanoic acid]	70 nM	104 nM
COc1ccc(-c2snc(Cl)c2COc2ccc(CCCO)c(F)c2F)cc1 [Cpd 168, 3-(4-[[3-chloro-5-(4-methoxyphenyl)-1,2-thiazol-4-yl]methoxy]-2,3-difluorophenyl)propan-1-ol]	325 nM	223 nM
Cc1c(CCC(=O)O)ccc(OCc2c(Cl)nsc2-c2ccc(Cl)cc2)c1C [Cpd 88, 3-(4-[[3-chloro-5-(4-chlorophenyl)-1,2-thiazol-4-yl]methoxy]-2,3-dimethylphenyl)propanoic acid]	81 nM	67 nM
COc1ccc(-c2nsc(C(F)(F)F)c2COc2c(F)cc(CCCO)cc2F)cn1 [Cpd 81, 3-(3,5-difluoro-4-[[3-(6-methoxypyridin-3-yl)-5-(trifluoromethyl)-1,2-thiazol-4-yl]methoxy]phenyl)propan-1-ol]	94 nM	51 nM
CCc1ccc(-c2ccsc2COc2ccc(CCCO)c(F)c2F)cc1 [Cpd 4, 3-(4-[[3-(4-ethylphenyl)thiophen-2-yl]methoxy]-2,3-difluorophenyl)propan-1-ol]	261 nM	59 nM
CCc1ccc(-c2snc(Cl)c2COc2ccc(CCCO)c(C)c2C)cc1 [Cpd 209, 3-(4-((3-chloro-5-(4-ethylphenyl)isothiazol-4-yl)methoxy)-2,3-dimethylphenyl)propan-1-ol]	229 nM	579 nM
CCc1ccc(-c2nsc(C(F)(F)F)c2COc2ccc(CCCO)c(F)c2F)cc1 [Cpd 139, 3-(4-((3-(4-ethylphenyl)-5-(trifluoromethyl)isothiazol-4-yl)methoxy)-2,3-difluorophenyl)propan-1-ol]	77 nM	138 nM
CCc1ccc(-c2cc(Cl)sc2COc2ccc(CCCO)c(F)c2F)cc1 [Cpd 14, 3-(4-[[5-chloro-3-(4-ethylphenyl)thiophen-2-yl]methoxy]-2,3-difluorophenyl)propan-1-ol]	265 nM	163 nM
3-(4-((4-(4-ethylphenyl)thiophen-3-yl)methoxy)-3,5-difluorophenyl)propanoic acid [Cpd 53]	210 nM	690 nM
O=C(O)CCc1cc(F)c(OCc2c(-c3ccc4c(c3)OCO4)csc2C(F)(F)F)c(F)c1 [Cpd 44, 3-(4-((4-(benzo[d][1,3]dioxol-5-yl)-2-(trifluoromethyl)thiophen-3-yl)methoxy)-3,5-difluorophenyl)propanoic acid]	456 nM	152 nM
Cc1cc(OCc2c(-c3ncc(Cl)cc3F)nsc2C(F)(F)F)c(F)cc1CCC(=O)O [Cpd 206, 3-(4-((3-(5-chloro-3-fluoropyridin-2-yl)-5-(trifluoromethyl)isothiazol-4-yl)methoxy)-5-fluoro-2-methylphenyl)propanoic acid]	540 nM	551 nM
Cc1c(CCC(=O)O)ccc(OCc2c(Cl)nsc2-c2ccccc2Cl)c1C [Cpd 104, 3-(4-[[3-chloro-5-(2-chlorophenyl)-1,2-thiazol-4-yl]methoxy]-2,3-dimethylphenyl)propanoic acid]	399 nM	83 nM
Cc1cc(CCC(=O)O)ccc1OCc1c(-c2ccc(Cl)cc2)nsc1C(F)(F)F [Cpd 235, 3-(4-[[3-(4-chlorophenyl)-5-(trifluoromethyl)-1,2-thiazol-4-yl]methoxy]-3-methylphenyl)propanoic acid]	302 nM	
COc1ccc(-c2nsc(C(F)(F)F)c2COc2c(F)cc(CCCO)cc2F)cc1 [Cpd 234, 3-(3,5-difluoro-4-[[3-(4-methoxyphenyl)-5-(trifluoromethyl)-1,2-thiazol-4-yl]methoxy]phenyl)propan-1-ol]	145 nM	
CCc1ccc(-c2nsc(C(F)(F)F)c2COc2c(C)cc(CCC(=O)O)cc2C)cc1 [Cpd 239, 3-(4-((3-(4-ethylphenyl)-5-(trifluoromethyl)isothiazol-4-yl)methoxy)-3,5-dimethylphenyl)propanoic acid]	203 nM	
O=C(O)CCc1ccc(OCc2sc(Cl)cc2-c2ccc(Cl)cc2)c(F)c1F [Cpd 28, 3-(4-[[5-chloro-3-(4-chlorophenyl)thiophen-2-yl]methoxy]-2,3-difluorophenyl)propanoic acid]	186 nM	
OCCCc1ccc(OCc2sc(Cl)cc2-c2ccc(Cl)cc2)c(F)c1F [Cpd 29, 3-(4-[[5-chloro-3-(4-chlorophenyl)thiophen-2-yl]methoxy]-2,3-difluorophenyl)propan-1-ol]	243 nM	
